Reference: PubChem BioAssay (NCI)
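Cultured in 96-well plates, cells were exposed to test compound for 48 hours across five concentrations. At the TGI there is no net growth.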

Tests used:
Test in all cases: growth of human tumour cells (NCI), 48 h
SK-MEL-5 melanoma = system: SK-MEL-5 melanoma
SR leukemia = system: SR leukemia
M14 melanoma = system: M14 melanoma
NCI-H23 lung = system: NCI-H23 lung
OVCAR-4 ovarian = system: OVCAR-4 ovarian
MDA-N = system: MDA-N
MOLT-4 leukemia = system: MOLT-4 leukemia
BT-549 breast = system: BT-549 breast
SNB-19 CNS = system: SNB-19 CNS
UO-31 renal = system: UO-31 renal
NCI/ADR-RES ovarian = system: NCI/ADR-RES ovarian
U251 CNS = system: U251 CNS
HT29 colon = system: HT29 colon
NCI-H460 lung = system: NCI-H460 lung
SF-539 CNS = system: SF-539 CNS
SW-620 colon = system: SW-620 colon
OVCAR-8 ovarian = system: OVCAR-8 ovarian
SN12C renal = system: SN12C renal
A549 NSCLC = system: A549 NSCLC
SNB-75 CNS = system: SNB-75 CNS
DU-145 prostate = system: DU-145 prostate
KM12 colon = system: KM12 colon
MCF7 breast = system: MCF7 breast
SK-MEL-2 melanoma = system: SK-MEL-2 melanoma
SF-268 CNS = system: SF-268 CNS
HCT-116 colon = system: HCT-116 colon
MDA-MB-435 = system: MDA-MB-435
K-562 leukemia = system: K-562 leukemia
MDA-MB-231 breast = system: MDA-MB-231 breast
OVCAR-3 ovarian = system: OVCAR-3 ovarian
UACC-62 melanoma = system: UACC-62 melanoma
ACHN renal = system: ACHN renal
TK-10 renal = system: TK-10 renal
COLO 205 colon = system: COLO 205 colon
IGROV1 ovarian = system: IGROV1 ovarian
SK-OV-3 ovarian = system: SK-OV-3 ovarian
786-0 renal = system: 786-0 renal
OVCAR-5 ovarian = system: OVCAR-5 ovarian
MALME-3M melanoma = system: MALME-3M melanoma
NCI-H226 lung = system: NCI-H226 lung
CCRF-CEM leukemia = system: CCRF-CEM leukemia
LOX IMVI melanoma = system: LOX IMVI melanoma
EKVX NSCLC = system: EKVX NSCLC
PC-3 prostate = system: PC-3 prostate
SK-MEL-28 melanoma = system: SK-MEL-28 melanoma
SF-295 CNS = system: SF-295 CNS
HOP-92 NSCLC = system: HOP-92 NSCLC
HS 578T breast = system: HS 578T breast
UACC-257 melanoma = system: UACC-257 melanoma
RXF 393 renal = system: RXF 393 renal
CAKI-1 renal = system: CAKI-1 renal
NCI-H522 lung = system: NCI-H522 lung
HCT-15 colon = system: HCT-15 colon
HL-60(TB) leukemia = system: HL-60(TB) leukemia
HCC-2998 colon = system: HCC-2998 colon
HOP-62 NSCLC = system: HOP-62 NSCLC

## COC(=O)Cc1c(C(=O)CC(C)(C)n2cnc(CCN3C(=O)CCC3=O)c2)[nH]c2ccccc12
SK-MEL-5 melanoma
  TGI: > 100 µM
SR leukemia
  TGI: > 100 µM
M14 melanoma
  TGI: > 100 µM
NCI-H23 lung
  TGI: > 100 µM
OVCAR-4 ovarian
  TGI: > 100 µM
MDA-N
  TGI: > 100 µM
MOLT-4 leukemia
  TGI: > 100 µM
BT-549 breast
  TGI: > 100 µM
SNB-19 CNS
  TGI: > 100 µM
UO-31 renal
  TGI: > 100 µM
NCI/ADR-RES ovarian
  TGI: > 100 µM
U251 CNS
  TGI: > 100 µM
HT29 colon
  TGI: > 100 µM
NCI-H460 lung
  TGI: > 100 µM
SF-539 CNS
  TGI: > 100 µM
SW-620 colon
  TGI: > 100 µM
OVCAR-8 ovarian
  TGI: > 100 µM
SN12C renal
  TGI: > 100 µM
A549 NSCLC
  TGI: > 100 µM
SNB-75 CNS
  TGI: > 100 µM
DU-145 prostate
  TGI: > 100 µM
KM12 colon
  TGI: > 100 µM
MCF7 breast
  TGI: > 100 µM
SK-MEL-2 melanoma
  TGI: > 100 µM
SF-268 CNS
  TGI: > 100 µM
HCT-116 colon
  TGI: > 100 µM
MDA-MB-435
  TGI: > 100 µM
K-562 leukemia
  TGI: > 100 µM
MDA-MB-231 breast
  TGI: > 100 µM
OVCAR-3 ovarian
  TGI: > 100 µM
UACC-62 melanoma
  TGI: > 100 µM
ACHN renal
  TGI: > 100 µM
TK-10 renal
  TGI: > 100 µM
COLO 205 colon
  TGI: > 100 µM
IGROV1 ovarian
  TGI: > 100 µM
SK-OV-3 ovarian
  TGI: > 100 µM
786-0 renal
  TGI: > 100 µM
OVCAR-5 ovarian
  TGI: > 100 µM
MALME-3M melanoma
  TGI: > 100 µM
NCI-H226 lung
  TGI: > 100 µM
CCRF-CEM leukemia
  TGI: > 100 µM
LOX IMVI melanoma
  TGI: > 100 µM
EKVX NSCLC
  TGI: > 100 µM
PC-3 prostate
  TGI: > 100 µM
SK-MEL-28 melanoma
  TGI: > 100 µM
SF-295 CNS
  TGI: > 100 µM
HOP-92 NSCLC
  TGI: > 100 µM
HS 578T breast
  TGI: > 100 µM
UACC-257 melanoma
  TGI: > 100 µM
RXF 393 renal
  TGI: 96 µM
CAKI-1 renal
  TGI: > 100 µM
NCI-H522 lung
  TGI: > 100 µM
HCT-15 colon
  TGI: > 100 µM

## COc1cccc(CC2C(=O)N=C(NC(C)=O)N2C)c1OC(C)=O (stereo unspecified)
SK-MEL-5 melanoma
  TGI: > 100 µM
M14 melanoma
  TGI: > 100 µM
NCI-H23 lung
  TGI: > 100 µM
OVCAR-4 ovarian
  TGI: > 100 µM
MDA-N
  TGI: > 100 µM
MOLT-4 leukemia
  TGI: > 100 µM
BT-549 breast
  TGI: > 100 µM
SNB-19 CNS
  TGI: > 100 µM
UO-31 renal
  TGI: > 100 µM
NCI/ADR-RES ovarian
  TGI: > 100 µM
U251 CNS
  TGI: > 100 µM
HT29 colon
  TGI: > 100 µM
NCI-H460 lung
  TGI: > 100 µM
SF-539 CNS
  TGI: > 100 µM
SW-620 colon
  TGI: > 100 µM
OVCAR-8 ovarian
  TGI: > 100 µM
SN12C renal
  TGI: > 100 µM
A549 NSCLC
  TGI: > 100 µM
SNB-75 CNS
  TGI: > 100 µM
DU-145 prostate
  TGI: > 100 µM
KM12 colon
  TGI: > 100 µM
MCF7 breast
  TGI: > 100 µM
HL-60(TB) leukemia
  TGI: > 100 µM
SK-MEL-2 melanoma
  TGI: > 100 µM
SF-268 CNS
  TGI: > 100 µM
HCT-116 colon
  TGI: > 100 µM
MDA-MB-435
  TGI: > 100 µM
MDA-MB-231 breast
  TGI: > 100 µM
HCC-2998 colon
  TGI: > 100 µM
OVCAR-3 ovarian
  TGI: > 100 µM
UACC-62 melanoma
  TGI: > 100 µM
HOP-62 NSCLC
  TGI: > 100 µM
ACHN renal
  TGI: > 100 µM
TK-10 renal
  TGI: > 100 µM
COLO 205 colon
  TGI: > 100 µM
IGROV1 ovarian
  TGI: > 100 µM
SK-OV-3 ovarian
  TGI: > 100 µM
786-0 renal
  TGI: > 100 µM
OVCAR-5 ovarian
  TGI: > 100 µM
NCI-H226 lung
  TGI: > 100 µM
CCRF-CEM leukemia
  TGI: > 100 µM
LOX IMVI melanoma
  TGI: > 100 µM
EKVX NSCLC
  TGI: > 100 µM
PC-3 prostate
  TGI: > 100 µM
SK-MEL-28 melanoma
  TGI: > 100 µM
SF-295 CNS
  TGI: > 100 µM
HOP-92 NSCLC
  TGI: > 100 µM
HS 578T breast
  TGI: > 100 µM
UACC-257 melanoma
  TGI: > 100 µM
RXF 393 renal
  TGI: > 100 µM
CAKI-1 renal
  TGI: > 100 µM
NCI-H522 lung
  TGI: > 100 µM
HCT-15 colon
  TGI: > 100 µM
